Test results from PMC9612005 (Pharmaceutics, 2022).
Several values for one entry are separate records, joined by “and”; a condition that tells them apart may be missing. Equal values may be shown once. Read-outs that look alike come from different tables or passages of the source.

Legend:
[1] = molecular target: T1, rod CNG channels (CNGA1:CNGB1a) (Bos taurus, UniProt Q00194+Q28181); assay: Patch-clamp on inside-out patches, heterotetrameric rod CNG channels expressed in Xenopus laevis oocytes; format: cell-based, bovine
T1 construct: expressed in transfected cells; host or cells: Xenopus laevis oocytes (cRNA injection, pGEMHE vector); inside-out patches
Description: The patch pipettes were pulled from borosilicate glass tubing (outer diameter 2.0 mm, inner diameter 1.0 mm; Hilgenberg GmbH, Malsfeld, Germany). The initial resistance of the solution-filled pipettes was 0.6–1.4 MΩ. […] For studying the activation and deactivation kinetics of CNG channels, we performed fast jumps between different ligand concentrations by means of a double-barreled θ-glass pipette mounted on a piezo-driven device, which was controlled by the computer. For measuring the time courses, the recording rate was 20 kHz. […]

[2] = molecular target: T2, cone CNG channels (CNGA3:CNGB3) (Homo sapiens, UniProt Q16281+Q9NQW8); assay: Patch-clamp on inside-out patches, heterotetrameric cone CNG channels expressed in Xenopus laevis oocytes; format: cell-based
T2 construct: expressed in transfected cells; host or cells: Xenopus laevis oocytes (cRNA injection, pGEMHE vector); inside-out patches
T2 sequence (Q16281 1-694): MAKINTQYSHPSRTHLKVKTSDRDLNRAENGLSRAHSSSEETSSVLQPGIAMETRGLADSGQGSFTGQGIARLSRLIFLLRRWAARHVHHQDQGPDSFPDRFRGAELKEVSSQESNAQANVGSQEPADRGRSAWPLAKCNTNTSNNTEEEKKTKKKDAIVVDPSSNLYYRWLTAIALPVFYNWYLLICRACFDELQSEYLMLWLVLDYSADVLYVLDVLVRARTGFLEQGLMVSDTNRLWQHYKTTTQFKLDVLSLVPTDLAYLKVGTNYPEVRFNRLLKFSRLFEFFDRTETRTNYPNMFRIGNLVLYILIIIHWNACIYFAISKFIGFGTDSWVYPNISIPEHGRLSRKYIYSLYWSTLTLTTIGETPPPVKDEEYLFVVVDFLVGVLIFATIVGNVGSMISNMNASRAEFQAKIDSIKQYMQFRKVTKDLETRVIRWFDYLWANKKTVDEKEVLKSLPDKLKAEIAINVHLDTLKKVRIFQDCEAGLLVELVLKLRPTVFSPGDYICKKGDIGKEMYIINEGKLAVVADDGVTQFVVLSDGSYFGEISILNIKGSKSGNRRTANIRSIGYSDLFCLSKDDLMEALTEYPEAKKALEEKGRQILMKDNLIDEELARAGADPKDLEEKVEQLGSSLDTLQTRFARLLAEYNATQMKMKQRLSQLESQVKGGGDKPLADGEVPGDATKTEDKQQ
T2 sequence (Q9NQW8 1-809): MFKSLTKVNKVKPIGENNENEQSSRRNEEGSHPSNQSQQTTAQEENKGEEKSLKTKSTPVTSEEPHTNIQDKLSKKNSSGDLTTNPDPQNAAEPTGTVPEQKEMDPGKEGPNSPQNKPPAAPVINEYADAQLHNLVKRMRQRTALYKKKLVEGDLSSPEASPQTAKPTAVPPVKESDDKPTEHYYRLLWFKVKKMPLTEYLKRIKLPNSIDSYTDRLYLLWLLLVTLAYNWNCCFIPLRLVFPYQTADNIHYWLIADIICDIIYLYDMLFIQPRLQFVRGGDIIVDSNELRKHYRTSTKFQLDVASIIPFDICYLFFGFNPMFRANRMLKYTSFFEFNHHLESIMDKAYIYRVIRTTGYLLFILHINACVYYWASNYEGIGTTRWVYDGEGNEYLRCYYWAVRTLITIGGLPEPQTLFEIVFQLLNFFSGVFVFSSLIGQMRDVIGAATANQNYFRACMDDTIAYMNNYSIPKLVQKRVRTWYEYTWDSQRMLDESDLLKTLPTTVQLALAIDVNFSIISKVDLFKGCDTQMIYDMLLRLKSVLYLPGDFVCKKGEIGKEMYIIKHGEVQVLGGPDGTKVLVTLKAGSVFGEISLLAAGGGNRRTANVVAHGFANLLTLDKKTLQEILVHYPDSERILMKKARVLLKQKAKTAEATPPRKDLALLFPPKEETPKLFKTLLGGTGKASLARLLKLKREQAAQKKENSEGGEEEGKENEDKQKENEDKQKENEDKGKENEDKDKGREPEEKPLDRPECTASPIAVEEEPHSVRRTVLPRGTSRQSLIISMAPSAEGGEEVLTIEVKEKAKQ
Description: The patch pipettes were pulled from borosilicate glass tubing (outer diameter 2.0 mm, inner diameter 1.0 mm; Hilgenberg GmbH, Malsfeld, Germany). The initial resistance of the solution-filled pipettes was 0.6–1.4 MΩ. […] For studying the activation and deactivation kinetics of CNG channels, we performed fast jumps between different ligand concentrations by means of a double-barreled θ-glass pipette mounted on a piezo-driven device, which was controlled by the computer. For measuring the time courses, the recording rate was 20 kHz.
The activation and deactivation time courses were determined by fitting the respective current traces with single exponentials:(3) I(t)=A∗exp[−t/τ] where A is the amplitude, t the time, and τ the time constant for either activation or deactivation.

[3] = cGMP + 50 µM of the cGMP analogue

T1 sequence (Q00194 whole entry): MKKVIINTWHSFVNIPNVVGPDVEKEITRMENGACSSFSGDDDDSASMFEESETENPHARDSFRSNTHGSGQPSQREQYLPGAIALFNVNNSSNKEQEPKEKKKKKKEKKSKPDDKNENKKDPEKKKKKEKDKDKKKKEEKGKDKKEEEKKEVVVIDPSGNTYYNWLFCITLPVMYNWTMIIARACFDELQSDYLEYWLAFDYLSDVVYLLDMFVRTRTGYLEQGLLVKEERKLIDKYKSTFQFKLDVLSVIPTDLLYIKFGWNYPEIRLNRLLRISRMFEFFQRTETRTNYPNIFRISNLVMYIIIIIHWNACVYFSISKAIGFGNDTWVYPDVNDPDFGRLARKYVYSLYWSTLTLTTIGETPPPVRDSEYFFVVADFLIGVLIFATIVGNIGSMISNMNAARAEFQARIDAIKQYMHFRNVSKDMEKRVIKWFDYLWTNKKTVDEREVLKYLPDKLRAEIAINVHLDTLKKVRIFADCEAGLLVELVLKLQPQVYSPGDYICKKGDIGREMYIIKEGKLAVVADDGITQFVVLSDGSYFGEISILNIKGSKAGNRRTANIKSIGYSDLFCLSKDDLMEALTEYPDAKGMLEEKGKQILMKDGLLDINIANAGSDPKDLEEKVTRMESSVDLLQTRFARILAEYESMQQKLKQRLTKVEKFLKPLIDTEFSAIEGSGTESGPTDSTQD
T1 sequence (Q28181 whole entry): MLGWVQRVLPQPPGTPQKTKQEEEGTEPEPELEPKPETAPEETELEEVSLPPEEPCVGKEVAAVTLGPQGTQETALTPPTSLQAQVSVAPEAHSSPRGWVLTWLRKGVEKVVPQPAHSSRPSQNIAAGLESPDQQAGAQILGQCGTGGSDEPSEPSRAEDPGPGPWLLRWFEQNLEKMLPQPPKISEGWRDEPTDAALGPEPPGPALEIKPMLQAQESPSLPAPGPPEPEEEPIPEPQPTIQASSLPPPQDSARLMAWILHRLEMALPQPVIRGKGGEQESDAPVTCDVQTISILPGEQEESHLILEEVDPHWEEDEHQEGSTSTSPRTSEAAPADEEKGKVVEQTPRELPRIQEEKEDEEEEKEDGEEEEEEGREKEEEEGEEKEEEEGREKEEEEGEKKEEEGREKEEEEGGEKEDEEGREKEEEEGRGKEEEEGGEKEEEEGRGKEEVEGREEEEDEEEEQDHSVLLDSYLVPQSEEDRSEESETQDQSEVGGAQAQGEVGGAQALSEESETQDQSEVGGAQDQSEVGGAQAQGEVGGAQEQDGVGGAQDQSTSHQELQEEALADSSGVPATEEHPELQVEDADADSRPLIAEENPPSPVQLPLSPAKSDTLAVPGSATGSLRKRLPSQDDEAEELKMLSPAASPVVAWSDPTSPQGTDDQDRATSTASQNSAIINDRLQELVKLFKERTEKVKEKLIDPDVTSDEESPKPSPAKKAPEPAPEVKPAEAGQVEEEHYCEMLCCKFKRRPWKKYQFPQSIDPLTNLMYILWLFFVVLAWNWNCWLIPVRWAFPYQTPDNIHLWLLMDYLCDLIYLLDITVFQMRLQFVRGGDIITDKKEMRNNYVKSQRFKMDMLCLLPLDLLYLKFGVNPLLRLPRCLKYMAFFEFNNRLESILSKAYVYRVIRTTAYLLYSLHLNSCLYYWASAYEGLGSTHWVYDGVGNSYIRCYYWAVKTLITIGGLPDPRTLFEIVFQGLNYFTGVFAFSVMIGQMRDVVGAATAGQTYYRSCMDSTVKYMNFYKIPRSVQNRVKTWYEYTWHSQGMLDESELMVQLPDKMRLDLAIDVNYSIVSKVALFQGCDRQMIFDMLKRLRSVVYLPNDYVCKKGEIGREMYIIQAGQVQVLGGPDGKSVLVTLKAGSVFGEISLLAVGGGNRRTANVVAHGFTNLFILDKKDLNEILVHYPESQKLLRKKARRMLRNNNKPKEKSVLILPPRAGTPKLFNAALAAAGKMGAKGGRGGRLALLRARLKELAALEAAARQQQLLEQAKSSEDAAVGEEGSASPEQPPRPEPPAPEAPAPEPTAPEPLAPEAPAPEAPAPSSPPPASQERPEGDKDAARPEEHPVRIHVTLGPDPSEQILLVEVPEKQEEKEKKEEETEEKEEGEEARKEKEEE

Row | Compound | EC50 [1] [nM] | decrease in the apparent affinity of rod CNG channels (increase of cGMP EC50) ([1]; 50 µM analogue) | H (Hill coefficient), rod CNG channels [1, 3] | EC50 [2] [nM] | decrease in the apparent affinity of cone CNG channels ([2]; 50 µM analogue) | H (Hill coefficient), cone CNG channels [2, 3] | effect on rod channels ([1]; 0.1 µM) | potency compared to cGMP, rod channel ([1]; higher potency than cGMP) | H (Hill coefficient), rod CNG channels ([1]; ligand alone) | EC50 ([1]; ligand alone, concentration-activation relationship, Hill fit, read-out: EC50, rod CNG channels) [nM] | cone CNG-channel activation ([2]; 0.1 µM) | potency compared to cGMP, cone channel ([2]; higher potency than cGMP) | H (Hill coefficient), cone CNG channels ([2]; ligand alone) | EC50 ([2]; ligand alone, concentration-activation relationship, Hill fit, read-out: EC50, cone CNG channels) [nM]
1 | O=c1c2nc(Br)n([C@@H]3O[C@@H]4CO[P@@](=O)(S)O[C@H]4[C@H]3O)c2nc2[nH]c(-c3ccccc3)cn12 [Rp-8-Br-PET-cGMPS] | 450 | ~ 4.9 fold and ~ 5 fold | 1.90 | 4400 | ~ 3.2 fold | 1.97 |  |  |  |  |  |  |  | 
2 | Nc1nc2c(nc(Sc3ccc(Cl)cc3)n2[C@@H]2O[C@@H]3COP(=O)(O)O[C@H]3[C@H]2O)c(=O)[nH]1 [8-pCPT-cGMP] |  |  |  |  |  |  | almost no effect on rod channels | ~ 63 times | 2.2 | 630 | ~ 90% | ~ 138 times | 1.74 | 80
